Experimental data published in US9370526B2, “Combination hormone replacement therapy (HRT) and melatonin to prevent and treat mammary cancer” (Duquesne University of the Holy Spirit, priority 2009, dated 2016).

Columns and labels:
[1] = system: MMTV-neu mice (neu oncogene, mimics HER2+ breast cancer); experiment: Mammary tumor onset (latency) and incidence in MMTV-neu mice given oral HRT diet and/or nocturnal melatonin in drinking water; type: in vivo
Excerpt: (§1) We studied the effects of the present combination therapy as follows. We chose a mouse model, MMTV-neu mice, which express the neu oncogene that mimics HER2+ breast cancer. In a population of mice, both melatonin and HRT were given orally to correlate with the dosage method in women, basing the dosing on diet based on the calories an average woman consumes daily, namely, 1800 kcal, but adjusting for the small size and metabolism of the mice. Estrogen+progestin HRT contained the bioidentical hormones 17β-estradiol (E2) at the currently recommended dosage for women (0.5 mg/1800 kcal) and progesterone (P4) at half of the recommended dose (50 mg/1800 kcal). For example, the daily mouse dose would be less than 500 mcg progesterone (P4). Melatonin was provided in the drinking water at a concentration of 15 mg/L (dose equivalent to a 5 mg tablet for women) only during the night to supplement the normal nocturnal surge in endogenous melatonin. Using drinking water rather than food to administer melatonin allowed the mice continual access to the control and HRT diets, instead of just during the night (dark cycle).
Referring now to FIG. 1, survival curves are shown which represent the age of primary mammary tumor onset in weeks, on the x axis, and percent mammary tumor incidence on the y axis. FIG. 1a represents age of primary mammary tumor onset and incidence between control (C/V) vs. melatonin (C/M) groups, with C signifying no hormone administration, V signifying no melatonin administration, and M signifying melatonin administration. FIG. 1b represents control vs. HRT (HRT/V) groups, with C signifying no hormone administration, V signifying no melatonin administration, and with HRT signifying Hormone Replacement Therapy (in FIG. 1b, without melatonin, or “V”). FIG. 1c represents the results of HRT/V versus HRT/M administration (M=melatonin) and FIG. 1d represents the results of CN versus HRT/M administration. […] No change in body weight occurred as a result of the treatments. […] FIG. 1c represents HRT vs. HRT plus melatonin; FIG. 1d represents control versus HRT plus melatonin.

[2] = system: mammary tumors in MMTV-neu mice; experiment: Mammary tumor growth and progression (tumor weight, volume, metastatic incidence), same study; type: in vivo; settings: compared to control animals (FIG. 2)
Excerpt: as §1

[3] = system: RNA expression in the lower mammary gland; experiment: RNA expression in the lower mammary gland by microarray analysis; type: in vivo, mice
Procedure: FIG. 3 reports aggregated data regarding thousands of RNA fragments tested for over- or under-expression of more than one and one-half times more or less expression than in control, for mice treated with C/C (no hormone, no melatonin control), C/M (no hormone/melatonin), EMP/C (estrogen/mid progesterone (that is, half the recommended dose of progesterone, or 50 mg (P4)) but no melatonin) and EMP/M (estrogen/mid progesterone (that is, half the recommended dose of progesterone, or 50 mg (P4)) and melatonin).

COc1ccc2[nH]cc(CCNC(C)=O)c2c1 [melatonin]
incidence of mammary cancer, in words ([1]; compared to control animals): did not modify | latency of mammary cancer (age of primary tumor onset), in words ([1]; compared to control animals): did not modify | incidence of mammary cancer (animals with tumor/animals in group) ([1]; control 44/57): 42/57 | incidence of mammary cancer ([1]; control 77%): 74% | tumor volume [2]: significant decrease | tumor weight [2]: significant decrease | RNA expression changes (upregulation and downregulation), in words [3]: limited number of RNA expression changes
